Laboratory results: patent US20240285552A1 (priority 2020, published 2024)
“Also recorded” adds a separate entry of the source. Structures can show the parent of a compound that is named as a salt. Where two headings read alike, the source gives them in different places.

What was measured:
[1] = target: T1, recombinant human ACE2 (rhACE2) (Homo sapiens, UniProt Q9BYF1); experiment: ACE2 exopeptidase inhibitor screening assay (fluorogenic substrate), AMB and BHH; format: biochemical
T1 construct: purchased BPS Bioscience 79923
T1 sequence (Q9BYF1 18-805): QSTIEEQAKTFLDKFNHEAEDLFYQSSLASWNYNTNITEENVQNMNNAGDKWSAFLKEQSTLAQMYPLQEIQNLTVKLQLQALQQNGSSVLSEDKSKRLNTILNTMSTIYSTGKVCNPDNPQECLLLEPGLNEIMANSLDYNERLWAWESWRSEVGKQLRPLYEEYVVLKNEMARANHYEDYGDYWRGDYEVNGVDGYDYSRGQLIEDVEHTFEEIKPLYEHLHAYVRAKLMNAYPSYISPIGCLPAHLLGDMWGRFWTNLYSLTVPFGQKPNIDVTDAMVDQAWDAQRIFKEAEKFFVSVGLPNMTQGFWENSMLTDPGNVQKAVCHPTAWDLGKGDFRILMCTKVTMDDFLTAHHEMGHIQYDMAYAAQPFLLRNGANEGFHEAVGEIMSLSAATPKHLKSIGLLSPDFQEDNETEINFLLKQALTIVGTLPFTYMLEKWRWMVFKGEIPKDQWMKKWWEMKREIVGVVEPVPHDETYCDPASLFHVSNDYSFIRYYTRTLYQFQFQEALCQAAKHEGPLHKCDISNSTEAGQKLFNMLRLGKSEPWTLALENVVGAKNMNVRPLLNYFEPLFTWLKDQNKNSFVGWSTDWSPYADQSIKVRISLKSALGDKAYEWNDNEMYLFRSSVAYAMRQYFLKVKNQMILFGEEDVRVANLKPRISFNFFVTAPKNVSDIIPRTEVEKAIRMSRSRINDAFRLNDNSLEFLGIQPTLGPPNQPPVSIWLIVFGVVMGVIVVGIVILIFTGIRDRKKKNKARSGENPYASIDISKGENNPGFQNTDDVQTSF
Procedure: ACE2 Inhibitor Screening Assay. An ACE2 exopeptidase Inhibitor screening assay kit with the fluorogenic substrate (Catalogue #79923) was purchased from BPS Bioscience (San Diego, CA) and modified to measure the exopeptidase activity of ACE2 in the presence and absence of inhibitors (BPSBioscience, 2022). Following the manufacturer's directions, the fluorescence assay was carried out in a 96-well black flat-bottom plate with a final reaction volume of 50 μL. 50 mM stock solutions of BHH and AMB in 100% DMSO were prepared. Compounds were serially diluted in DMSO as follows: 500, 250, 100, 50, 10, 1, 0.1 μM. All experiments were done in triplicates and repeated twice. A positive control of enzyme treated with vehicle alone (2 percent DMSO) and a blank control with no enzyme were included on each plate.
Each reaction had 24 μL of purified recombinant human ACE2 protein (0.42 ng/L) in ACE2 buffer, 1 μL of the compound at different concentrations, and 25 μL ACE2 fluorogenic substrate. The final volume of the reaction was 50 μL. The reaction mixtures were incubated for 1 hr at room temperature (22° C.) and protected from light. After that, the fluorescence intensities (λExcitation=535 nm, λEmission=595 nm) were measured using a Spectramax iD3 multimode plate reader. The background hydrolysis was subtracted, and the data were fitted to a four-parameter logistic (variable slope) equation using GraphPad prism software 9.1.

[2] = test system: SARS-CoV-2 spike pseudotyped lentivirus; experiment: microbe, parasite or virus in culture; format: cell-based; settings: for Percent Inhibition of fusion of SARS-CoV-2 spike pseudotyped lentivirus with HEK293-ACE2 cells: hydrochloride
SARS-CoV-2 USA_WA1/2020 [3] = experiment: microbe, parasite or virus in culture; format: cell-based
[4] = target: T2, rhACE2 and SARS-CoV-2 Spike (RBD) protein interaction (Homo sapiens, UniProt Q9BYF1); experiment: Spike (RBD)-ACE2 binding assay (ELISA); set-up: species or system human; SARS-CoV-2; settings: for IC50: bell-shaped model, AMB, BHH
T2 construct: purchased RayBiotech CoV-SACE2-1
T2 sequence (Q9BYF1 18-740): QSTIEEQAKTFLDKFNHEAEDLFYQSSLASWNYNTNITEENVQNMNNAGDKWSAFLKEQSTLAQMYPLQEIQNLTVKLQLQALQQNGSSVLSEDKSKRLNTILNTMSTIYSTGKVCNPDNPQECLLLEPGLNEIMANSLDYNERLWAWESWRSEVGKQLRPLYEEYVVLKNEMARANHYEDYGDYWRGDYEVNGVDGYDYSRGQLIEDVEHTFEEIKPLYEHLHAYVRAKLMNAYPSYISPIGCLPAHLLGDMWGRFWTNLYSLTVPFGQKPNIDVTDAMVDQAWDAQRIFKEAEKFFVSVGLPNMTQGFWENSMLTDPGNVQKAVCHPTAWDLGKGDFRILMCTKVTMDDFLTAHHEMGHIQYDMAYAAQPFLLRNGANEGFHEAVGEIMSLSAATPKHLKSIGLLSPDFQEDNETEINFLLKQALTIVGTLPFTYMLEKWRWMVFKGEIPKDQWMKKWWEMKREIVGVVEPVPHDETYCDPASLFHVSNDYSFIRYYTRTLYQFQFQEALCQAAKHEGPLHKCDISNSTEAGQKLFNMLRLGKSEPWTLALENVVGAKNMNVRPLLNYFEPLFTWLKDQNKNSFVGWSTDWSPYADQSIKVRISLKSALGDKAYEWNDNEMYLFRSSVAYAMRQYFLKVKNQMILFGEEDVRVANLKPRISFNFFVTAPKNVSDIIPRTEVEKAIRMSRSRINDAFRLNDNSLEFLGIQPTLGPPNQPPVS

ACE1 = target: T3, ACE1 (Homo sapiens, UniProt P12821); experiment: ACE1 activity assay (colorimetric); format: biochemical; settings: hydrochloride
T3 construct: purchased Sigma-Aldrich MAK422
T3 sequence (P12821 30-1306): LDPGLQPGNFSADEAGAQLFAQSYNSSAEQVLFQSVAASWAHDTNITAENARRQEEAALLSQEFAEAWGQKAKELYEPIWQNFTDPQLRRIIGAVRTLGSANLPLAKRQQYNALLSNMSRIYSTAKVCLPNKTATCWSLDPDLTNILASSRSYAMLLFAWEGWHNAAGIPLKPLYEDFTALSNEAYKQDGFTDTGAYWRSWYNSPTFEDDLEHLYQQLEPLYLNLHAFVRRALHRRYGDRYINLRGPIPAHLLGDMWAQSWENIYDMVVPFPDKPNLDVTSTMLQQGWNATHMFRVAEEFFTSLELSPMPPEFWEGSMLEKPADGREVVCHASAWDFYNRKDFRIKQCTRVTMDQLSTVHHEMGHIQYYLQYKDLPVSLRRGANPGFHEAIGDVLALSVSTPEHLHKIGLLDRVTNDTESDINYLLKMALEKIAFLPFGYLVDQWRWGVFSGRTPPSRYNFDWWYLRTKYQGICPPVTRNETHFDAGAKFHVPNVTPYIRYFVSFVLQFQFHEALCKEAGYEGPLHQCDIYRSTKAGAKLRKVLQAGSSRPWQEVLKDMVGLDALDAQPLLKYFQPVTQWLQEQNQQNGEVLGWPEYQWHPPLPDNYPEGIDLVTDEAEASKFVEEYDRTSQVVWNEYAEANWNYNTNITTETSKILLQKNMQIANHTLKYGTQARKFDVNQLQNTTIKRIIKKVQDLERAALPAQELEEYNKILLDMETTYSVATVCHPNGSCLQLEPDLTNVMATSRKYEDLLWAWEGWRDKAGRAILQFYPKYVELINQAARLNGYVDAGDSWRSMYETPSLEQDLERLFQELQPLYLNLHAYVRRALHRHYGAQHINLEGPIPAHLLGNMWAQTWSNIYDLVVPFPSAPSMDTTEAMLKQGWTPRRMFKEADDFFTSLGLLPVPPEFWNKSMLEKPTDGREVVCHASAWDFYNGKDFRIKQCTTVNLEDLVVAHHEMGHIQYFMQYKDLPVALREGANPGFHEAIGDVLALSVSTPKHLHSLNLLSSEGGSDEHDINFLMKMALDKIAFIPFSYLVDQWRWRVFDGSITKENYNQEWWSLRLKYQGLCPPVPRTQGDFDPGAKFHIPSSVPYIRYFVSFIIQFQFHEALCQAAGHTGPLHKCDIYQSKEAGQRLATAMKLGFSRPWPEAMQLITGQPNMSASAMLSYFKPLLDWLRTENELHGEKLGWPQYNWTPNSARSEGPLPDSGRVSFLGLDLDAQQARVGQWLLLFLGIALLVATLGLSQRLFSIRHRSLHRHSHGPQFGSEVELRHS
Procedure: ACE1 Activity Assay. ACE1 Inhibitor Screening Kit (Cat #MAK422) was purchased from Sigma-Aldrich (St. Louis, MO) and adapted to determine the effect of BHH and AMB on the enzymatic activity of ACE (Aldrich, 2022). The in vitro colorimetric assay was performed in a transparent flat-bottom 96-well plate. 50 mm and 10 mm solutions of Captropil, a known ACE1 inhibitor were used as a positive inhibitor control. Stock solutions of the compounds were prepared in 100% Dimethyl sulfoxide (DMSO) and further serially diluted in DMSO as follows: 500, 100, 50,10,5,1 and 0.5 μm for AMB and the positive control Captropil. All experiments were performed in quadruplicates. Each plate contained positive controls (1% DMSO) and blank controls with no ACE1 enzyme. Specifically, 2.5 μl of serially diluted compounds were pre-incubated with 2 μl of ACE1 protein diluted in 38 μl of 1× assay diluent buffer for about 15 mins, at room temperature (22° C.). 157.5 μl of 1×ACE1 assay buffer (197.5 μl for −ve control) was added into the 96 well plates. The solution was mixed well and incubated at 37° C. for 15-20 minutes, protected from light. After that, 40 μl of the substrate was added to each well and mixed well. The absorbance was measured immediately at 345 nm (A345) in kinetic mode for 60 minutes.

Vero E6 cells = settings: Vero E6; at 30 μM; Example B
SARS-CoV-2 USA_WA1/2020 [5] = settings: hamster
in vitro = settings: African green monkey

## CN(Cc1cc(Br)cc(Br)c1N)C1CCCCC1 [BHH, Bromhexine hydrochloride]
[1]; 0.1 uM
  ACE2 Exopeptidase Activity: Percent Activity: 111.3%
[1]; 0.1 uM, read-out: ACE2 Exopeptidase Activity: Percent Inhibition
  inhibition at 0.1 µM: -11.3%
[1]; 1 uM
  ACE2 Exopeptidase Activity: Percent Activity: 114.7%
[1]; 1 uM, read-out: ACE2 Exopeptidase Activity: Percent Inhibition
  inhibition at 1 µM: -14.7%
[1]; 10 uM
  ACE2 Exopeptidase Activity: Percent Activity: 104.6%
[1]; 10 uM, read-out: ACE2 Exopeptidase Activity: Percent Inhibition
  inhibition at 10 µM: -4.6%
[1]; 50 uM
  ACE2 Exopeptidase Activity: Percent Activity: 2.7%
[1]; 50 uM, read-out: ACE2 Exopeptidase Activity: Percent Inhibition
  inhibition at 50 µM: 97.3%
[1]; 100 uM
  ACE2 Exopeptidase Activity: Percent Activity: −6.2%
[1]; 100 uM, read-out: ACE2 Exopeptidase Activity: Percent Inhibition
  inhibition at 100 µM: 106%
[1]; 250 uM
  ACE2 Exopeptidase Activity: Percent Activity: −6.7%
[1]; 250 uM, read-out: ACE2 Exopeptidase Activity: Percent Inhibition
  inhibition at 250 µM: 107%
[1]; 500 uM
  ACE2 Exopeptidase Activity: Percent Activity: −6.6%
[1]; 500 uM, read-out: ACE2 Exopeptidase Activity: Percent Inhibition
  inhibition at 500 µM: 107%
[1]; read-out: IC50, exopeptidase function of ACE2
  IC50: 26 µM
[1]; tested 0.1 to 500 μM, hydrochloride
  effect on exopeptidase activity of rhACE2: completely inhibited
[2]; 50 μM, Table 3
  Percent Inhibition of fusion of SARS-CoV-2 spike pseudotyped lentivirus with HEK293-ACE2 cells: 61%
[2]; 100 μM, Table 3
  Percent Inhibition of fusion of SARS-CoV-2 spike pseudotyped lentivirus with HEK293-ACE2 cells: 76%
[2]; Severe acute respiratory syndrome coronavirus 2, 50 μM, Table 3, read-out: Percent Inhibition of fusion of SARS-CoV-2 spike pseudotyped lentivirus with HEK293-ACE2 cells
  inhibition at 50 µM: 57%
[2]; Severe acute respiratory syndrome coronavirus 2, 100 μM, Table 3, read-out: Percent Inhibition of fusion of SARS-CoV-2 spike pseudotyped lentivirus with HEK293-ACE2 cells
  inhibition at 100 µM: 73%
[2]; Severe acute respiratory syndrome coronavirus 2, HEK293, 10 μM, Table 2, read-out: Percent (%) Inhibition of Pseudo virus Entry in HEK293 Kidney Cells, SARS-COV-2
  inhibition at 10 µM: 50%
[2]; Severe acute respiratory syndrome coronavirus 2, HEK293, 100 μM, Table 2, read-out: Percent (%) Inhibition of Pseudo virus Entry in HEK293 Kidney Cells, SARS-COV-2
  inhibition at 100 µM: ≤ 100%
SARS-CoV-2 USA_WA1/2020 [3]; Example C (Table 3)
  Concentration at Maximum % Inhibition: 37.5 µM
  Maximum Inhibition: 72.39%
SARS-CoV-2 USA_WA1/2020 [3]; Severe acute respiratory syndrome coronavirus 2, Vero C1008, Example C (Table 3), read-out: IC 50 against SARS-COV-2 Induced Cytopathic Effect in Vero E6 Cells
  IC50: ~31.6 µM
SARS-CoV-2 USA_WA1/2020 [3]; Severe acute respiratory syndrome coronavirus 2, Vero C1008, Vero E6, Example B, highest concentration tested 30 μM, read-out: IC50 against SARS-CoV-2 infection induced CPE
  IC50: ~21.7 µM
SARS-CoV-2 USA_WA1/2020 [3]; Severe acute respiratory syndrome coronavirus 2, Vero C1008, at 30 μM, Example B, read-out: inhibition of SARS-CoV-2 induced CPE at maximum concentration
  inhibition at 30 µM: ~91.1%
SARS-CoV-2 USA_WA1/2020 [3]; Severe acute respiratory syndrome coronavirus 2, Vero C1008, read-out: EC50 values against SARS-CoV-2 (summary statement)
  EC50: ~30 µM
[4]; 100 μM to 100 nM, hydrochloride
  effect on Spike (RBD)-rhACE2 interaction: enhanced the interaction at higher concentrations; also recorded: increased the binding of ACE2 and RBD at high concentrations of 100 and 50 μM but blocked the interaction at low concentrations
[4]; highest tested 100 μM, read-out: Estimated Relative IC50 against rhACE2 and RBD Interaction Assay, IC50_2
  IC50: 42.9 µM
[4]; read-out: Estimated Relative IC50 against rhACE2 and RBD Interaction Assay, IC50_1
  IC50: 1.19 µM
ACE1
  effect on exopeptidase activity of ACE: inhibited; also recorded: showed activity against ACE1
Vero E6 cells
  percent minimum viability: 103.87%
SARS-CoV-2 USA_WA1/2020 [5]
  Overall Gmean Days 1-4, N2 gRNA, rectal swabs: 1.00E+05 copies/swab
  Overall Gmean Days 1-4 higher than Group 3, N2 gRNA, rectal swabs: 2 fold
  Peak viral load versus Group 3, N2 gRNA, rectal swabs: similar
SARS-CoV-2 USA_WA1/2020 [5]; Day 4
  SARS-CoV-2 genome load, N2 gRNA, lungs: 6.20E+09 copies/gram
  SARS-CoV-2 genome load, N2 gRNA, trachea: 1.21E+09 copies/gram
  active replication load higher than Group 3, E sgRNA, lungs: 3 fold
  active replication load, E sgRNA, lungs: 4.41E+07 copies/gram
  active replication load, E sgRNA, nasal turbinate: 1.67E+08 copies/gram
  active replication load, E sgRNA, trachea: 2.58E+06 copies/gram
  genome load higher than Group 3, N2 gRNA, lungs: 3 fold
  replication load higher than Group 3, E sgRNA, trachea: 2 fold
  viral load higher than Group 3, N2 gRNA, trachea: 2 fold
SARS-CoV-2 USA_WA1/2020 [5]; Day 4, ELISA, P<0.05
  serum IL-6 levels versus Group 3: significantly lower
SARS-CoV-2 USA_WA1/2020 [5]; Day −1, Day 2 (P<0.05), Day 4 (P<0.001)
  serum TNF-α versus Group 3: significantly low
SARS-CoV-2 USA_WA1/2020 [5]; Days −1, 2, 4
  serum IL-10 levels between groups: No significance difference
SARS-CoV-2 USA_WA1/2020 [5]; lung histopathology
  incidence and severity of microscopic lesions versus vehicle control: similar
SARS-CoV-2 USA_WA1/2020 [5]; lung samples Day 4
  lung viral load by TCID50 assay versus vehicle control: No difference
SARS-CoV-2 USA_WA1/2020 [5]; necropsy Day 4
  SARS-CoV-2 genome load, N2 gRNA, nasal turbinate: 3.57E+10 copies/gram
  gross lesions in the lung: reduced gross lesions in the lung
SARS-CoV-2 USA_WA1/2020 [5]; AMB 500, BHH 200 mg/kg/day PO
  Overall Gmean Days 1-4, E sgRNA, pharyngeal swabs: 4.82E+04 copies/swab
  Overall Gmean Days 1-4 lower than Group 3, E sgRNA, pharyngeal swabs: 2 fold
  Overall Gmean Days 1-4 viral load lower than Group 3, N2 gRNA, pharyngeal swabs: 2 fold
  Overall Gmean viral load Days 1-4, N2 gRNA, pharyngeal swabs: 4.93E+07 copies/swab
  Peak viral load lower than vehicle (Group 3), N2 gRNA, pharyngeal swabs: 3 fold
  Peak viral replication load lower than Group 3, E sgRNA, pharyngeal swabs: 4 fold
SARS-CoV-2 USA_WA1/2020 [5]; AMB 500, BHH 200 mg/kg/day PO, up to 5 days
  tolerability of administered doses: tolerated the administered doses well
SARS-CoV-2 USA_WA1/2020 [5]; AMB 500, BHH 200 mg/kg/day PO, peak Day 2 (AMB), Day 1 (BHH)
  Peak viral load, N2 gRNA, pharyngeal swabs: 4.93E+07 copies/swab
SARS-CoV-2 USA_WA1/2020 [5]; peak Day 1 (AMB), Day 2 (BHH)
  Peak viral replication load, E sgRNA, rectal swabs: 4.29 copies/swab
SARS-CoV-2 USA_WA1/2020 [5]; peak Day 2 (AMB), Day 1 (BHH)
  Peak viral replication load, E sgRNA, pharyngeal swabs: 2.65E+05 copies/swab
SARS-CoV-2 USA_WA1/2020 [5]; peak on Day 2
  Peak viral load, N2 gRNA, rectal swabs: 1.54E+05 copies/swab
In vitro; 50% cytotoxic concentration (CC50), Vero E6, 72 hours, Examples A and B, highest concentration 30 μM
  CC50 at 72 h: > 30 µM
In vitro; Cytotoxicity CC50, Vero E6, 72 hours, Example C (Table 4)
  CC50 at 72 h: 58.3 µM
